Data: US20130210034A1, “COMPLEX PHOSPHOPROTEIN ACTIVATION PROFILES” (BECKMAN COULTER, INC., priority 2005, published 2013)

Columns and labels:
pERK and pS6 = experiment: Comparison of SCF-stimulated pERK and pS6 (pERK/pS6 ratios) in healthy donor and AML bone marrow samples; format: cell-based, human
Experimental: In an attempt to dissect the differences between the pERK and pS6 kinetic profiles in healthy donor and AML bone marrow sampless, SCF-stimulated pERK and pS6 data derived from AML1, ALM2, and healthy donors 6 to 9 were analyzed from four different perspectives: MFI, the frequency of positive-stained cells, the ratio of positive to negative cells, and fold stimulation (FIG. 10 and Table 10). The ratio of positives to negative cells was calculated by estimating the AUC of both positive- and negative-stained cells at each t=n, and then expressing this as the ratio of positives to negatives. The fold stimulation was the fold change of the positive/negative ratio at t=n over the baseline ratio at t=0 min. […] However, this was not the case in the AML samples.

pSTAT5 = experiment: Cytokine-stimulated phosphorylation in AML cell populations (BM or PB of AML patients); format: cell-based, human

| Substance | Fold Stimulation, pERK/pS6 (pERK and pS6; AML1) | Frequency, pERK/pS6 (pERK and pS6; AML1) | MFI, pERK/pS6 (pERK and pS6; AML1) | Positives/Negatives, pERK/pS6 (pERK and pS6; AML1) | Fold Stimulation, pERK/pS6 (pERK and pS6; AML2) | Frequency, pERK/pS6 (pERK and pS6; AML2) | MFI, pERK/pS6 (pERK and pS6; AML2) | Positives/Negatives, pERK/pS6 (pERK and pS6; AML2) | [(pERK)max:(pS6)max]MFI ratio (pERK and pS6; AML samples) | [(pERK)max:(pS6)max]POS/NEG ratio (pERK and pS6; AML samples) | Fold Stimulation, pERK/pS6 (pERK and pS6; healthy donors 6 to 9) | Frequency, pERK/pS6 (pERK and pS6; healthy donors 6 to 9) | MFI, pERK/pS6 (pERK and pS6; healthy donors 6 to 9) | Positives/Negatives, pERK/pS6 (pERK and pS6; healthy donors 6 to 9) | pSTAT5, AML Sample (pSTAT5; patient AML2 (Example 3)) | pSTAT5, AML Sample (pSTAT5; patient AML5 (Example 3)) | pSTAT5, AML Sample (pSTAT5; patient AML6 (Example 3)) | pSTAT5, AML Sample (pSTAT5; patient AML8 (Example 3)) | pSTAT5, AML Sample (pSTAT5; patient AML13 (Example 3)) | pSTAT5, AML Sample (pSTAT5; patient AML14 (Example 3)) |
| --- | --- | --- | --- | --- | --- | --- | --- | --- | --- | --- | --- | --- | --- | --- | --- | --- | --- | --- | --- | --- |
| Stem Cell Factor [SCF] | 1.4 | 0.92 | 0.48 | 0.29 | 2.1 | 0.93 | 0.54 | 0.32 | about 0.5 | about 0.3 | 5.3 | 3.1 | 3.6 | 11 | – | – | – | – | – | – |
| Granulocyte-Macrophage Colony-Stimulating Factor [GM-CSF] | – | – | – | – | – | – | – | – | – | – | – | – | – | – | 14.6 | 2.0 | 2.5 | 10.6 | 14.6 | 4.7 |
